# Source: US20260184707A1, “PHARMACEUTICAL COMPOUNDS FOR THE TREATMENT OF COMPLEMENT MEDIATED DISORDERS” (ALEXION PHARMACEUTICALS, INC., priority 2022, published 2026)
# Molecular target: T1, Human complement C1s enzyme (Homo sapiens, UniProt P09871)
# T1 construct: purified from human serum, Complement Technology, Inc; purchased Complement Technology, Inc; host or cells: human serum (plasma-derived native protein)
# T1 sequence (P09871 438-688 limits assumed): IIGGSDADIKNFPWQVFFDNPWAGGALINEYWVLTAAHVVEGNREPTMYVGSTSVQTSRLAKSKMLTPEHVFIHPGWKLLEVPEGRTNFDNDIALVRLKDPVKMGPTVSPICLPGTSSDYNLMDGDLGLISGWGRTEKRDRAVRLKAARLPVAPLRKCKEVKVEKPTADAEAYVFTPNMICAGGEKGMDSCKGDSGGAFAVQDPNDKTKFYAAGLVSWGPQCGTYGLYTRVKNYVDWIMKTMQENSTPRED
# T1 sequence (P09871 16-437 partner limits assumed): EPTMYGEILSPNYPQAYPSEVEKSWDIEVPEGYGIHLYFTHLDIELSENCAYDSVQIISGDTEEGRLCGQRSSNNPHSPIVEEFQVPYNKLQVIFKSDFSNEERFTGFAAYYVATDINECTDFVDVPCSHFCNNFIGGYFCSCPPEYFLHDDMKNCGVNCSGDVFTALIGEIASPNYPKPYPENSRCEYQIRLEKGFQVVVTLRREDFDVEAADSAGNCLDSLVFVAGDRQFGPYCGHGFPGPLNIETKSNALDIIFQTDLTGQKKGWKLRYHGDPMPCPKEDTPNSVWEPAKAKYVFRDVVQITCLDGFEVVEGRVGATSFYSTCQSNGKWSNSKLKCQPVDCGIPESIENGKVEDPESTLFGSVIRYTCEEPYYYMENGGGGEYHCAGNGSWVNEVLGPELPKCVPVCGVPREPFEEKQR
# Experiment: Human C1s enzyme assay
# Type: biochemical
# Conditions: human complement C1s enzyme 1.16 nM, substrate Z-L-Lys-SBzl, A405; read-out: IC50 (Stars)
# In short: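 Thioesterase activity followed colorimetrically (DTNB, A405, 30-s reads) using 100 μM Z-L-Lys-SBzl substrate. Enzyme, human serum-derived C1s at 1.16 nM final, was incubated with test compound for 5 min, room temperature, pH 7.5 Tris buffer with 1 M NaCl. Rate-versus-concentration data fitted by nonlinear regression for IC50.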
row,Compound,IC50 [µM]
1,"CC(C)(Nc1cnc(-c2ccccc2F)n(CC(=O)NCc2cc3cnccc3[nH]2)c1=O)c1ccc2oc3ccccc3c2c1 [Compound 311, N-((1H-pyrrolo[3,2-c]pyridine-2-yl)methyl)-2-(5-((2-(dibenzo[b,d]furan-2-yl)propan-2-yl)amino)-2-(2-fluorophenyl)-6-oxopyrimidin-1(6H)-yl)acetamide]",0.1 to 1
2,"C[C@@H](Nc1cnc(N2CCCCC2)n(CC(=O)NCc2cc3cnccc3[nH]2)c1=O)c1ccc(Oc2ccccc2)cc1 [Compound 448, (R)-N-((1H-pyrrolo[3,2-c]pyridin-2-yl)methyl)-2-(6-oxo-5-((1-(4-phenoxyphenyl)-ethyl)amino)-2-(piperidin-1-yl)pyrimidin-1(6H)-yl)acet-amide]",0.1 to 1
3,"C[C@@H](Nc1cncn(CC(=O)NCc2cc3cnccc3[nH]2)c1=O)c1coc(-c2ccccc2)n1 [Compound 362, (R)-N-((1H-pyrrolo[3,2-c]pyridin-2-yl)methyl)-2-(6-oxo-5-((1-(2-phenyloxazol-4-yl)-ethyl)amino)pyrimidin-1(6H)-yl)acetamide]",0.1 to 1
4,"C[C@@H](Nc1cnc(N2CCC(F)(F)C2)n(CC(=O)NCc2cc3cnccc3[nH]2)c1=O)c1ccc2oc3ccccc3c2c1 [Compound 401, (R)-N-((1H-pyrrolo[3,2-c]pyridin-2-yl)methyl)-2-(5-((1-(dibenzo[b,d]furan-2-yl)ethyl)-amino)-2-(3,3-difluoropyrroli-din-1-yl)-6-oxopyrimidin-1(6H)-yl)acetamide]",0.1 to 1
5,"O=C(Cc1cc(NCCCc2ccccc2)ncc1-c1ccccc1)NCc1cc2cnccc2[nH]1 [Compound 80, N-((1H-pyrrolo[3,2-c]pyridine-2-yl)methyl)-2-(5-phenyl-2-((3-phenylpropyl)amino)pyridine-4-yl)acetamide]",> 1
6,"C[C@@H](Nc1cnc(N2CC3CCC2C3)n(CC(=O)NCc2cc3cnccc3[nH]2)c1=O)c1ccc2oc3ccccc3c2c1 (stereo partly drawn) [Compound 383, N-((1H-pyrrolo[3,2-c]pyridine-2-yl)methyl)-2-(2-(2-azabicyclo[2.2.1]heptan-2-yl)-5-(((R)-1-(dibenzo[b,d]furan-2-yl)ethyl)amino)-6-oxopyrimidin-1(6H)-yl)acetamide]",> 1
7,"O=C(Cn1c(-c2ccccc2)ncc(NC(=O)c2ccc(-c3ccccc3)s2)c1=O)Nc1nc2cnccc2s1 [Compound 235, N-(6-ox0-1-(2-oxo-2-(thiazolo [4,5-c]pyridin-2-ylamino)-ethyl)-2-phenyl-1,6-dihydro-pyrimidin-5-yl)-5-phenylthio-phene-2-carboxamide]",> 1
8,"O=C(Cn1c(-c2ccccc2)ncc(NC(=O)c2ccc(Oc3ccc(F)cc3F)cc2)c1=O)NCc1cc2cnccc2[nH]1 [Compound 55, N-(1-(2-(((1H-pyrrolo[3,2-c]pyridin-2-yl)methyl)amino)-2-oxoethyl)-6-oxo-2-phenyl-1,6-dihydropyrimidin-5-yl)-4-(2,4-difluorophenoxy)benzamide]",< 0.1
9,"O=C(Cn1c(N2CCCCC2)cnc(NCc2cc(-c3ccccc3)no2)c1=O)NCc1cc2cnccc2[nH]1 [Compound 473, N-((1H-pyrrolo[3,2-c]pyridin-2-yl)methyl)-2-(2-oxo-3-(((3-phenylisoxazol-5-yl)methyl)-amino)-6-(piperidin-1-yl)pyr-azin-1(2H)-yl)acetamide]",< 0.1
10,"O=C(Cn1c(-c2ccccc2)ncc(NC(=O)c2ccc(-c3ccccc3)s2)c1=O)NCc1ccc(Cl)s1 [Compound 278, N-(1-(2-(((5-chlorothiophen-2-yl)methyl)amino)-2-oxoethyl)-6-oxo-2-phenyl-1,6-dihydro-pyrimidin-5-yl)-5-phenylthio-phene-2-carboxamide]",> 1
11,"O=C(Cn1c(N2CCCCC2)cnc(NCc2cc(-c3ccccc3F)on2)c1=O)NCc1cc2cnccc2[nH]1 [Compound 479, N-((1H-pyrrolo[3,2-c]pyridin-2-yl)methyl)-2-(3-(((5-(2-fluorophenyl)isoxazol-3-yl)-methyl)amino)-2-oxo-6-(piper-idin-1-yl)pyrazin-1(2H)-yl)-acetamide]",< 0.1

# The remaining lines, values ahead:
row,IC50 [µM],Compound
1,< 0.1,"O=C(Cn1c(-c2ccccc2)ncc(NCCCc2ccc(S(F)(F)(F)(F)F)cc2)c1=O)NCc1cc2cnccc2[nH]1 [Compound 104, N-((1H-pyrrolo[3,2-c]pyridin-2-yl)methyl)-2-(6-oxo-5-((3-(4-(pentafluoro-lambda6-sulfaneyl)phenyl)propyl)-amino)-2-phenylpyrimidin-1(6H)-yl)acetamide]"
2,< 0.1,"C[C@@H](Nc1cnc(-c2ccncc2)n(CC(=O)NCc2cc3cnccc3[nH]2)c1=O)c1ccc2oc3ccccc3c2c1 [Compound 334, (R)-N-((1H-pyrrolo[3,2-c]pyridin-2-yl)methyl)-2-(5-((1-(dibenzo[b,d]furan-2-yl)ethyl)-amino)-6-oxo-2-(pyridin-4-yl)-pyrimidin-1(6H)-yl)acetamide]"
3,< 0.1,"O=C(Cn1c(-c2ccccc2)ncc(NC(=O)c2ccc(Oc3ccccc3)s2)c1=O)NCc1cc2cnccc2[nH]1 [Compound 215, N-(1-(2-(((1H-pyrrolo[3,2-c]pyridine-2-yl)methyl)amino)-2-oxoethyl)-6-oxo-2-phenyl-1,6-dihydropyrimidin-5-yl)-5-phenoxythiophene-2-carboxamide]"
4,< 0.1,"Cc1cnc(N[C@@H](C)c2ccc3oc4ccccc4c3c2)c(=O)n1CC(=O)NCc1cc2cnccc2[nH]1 [Compound 316, (S)-N-((1H-pyrrolo[3,2-c]pyridin-2-yl)methyl)-2-(3-((1-(dibenzo[b,d]furan-2-yl)ethyl)-amino)-6-methyl-2-oxopyrazin-1(2H)-yl)acetamide]"
5,< 0.1,"O=C(Cn1c(N2CCCCC2)cnc(NCc2noc3ccccc23)c1=O)NCc1cc2cnccc2[nH]1 [Compound 480, N-((1H-pyrrolo[3,2-c]pyridin-2-yl)methyl)-2-(3-((benzo[d]isoxazol-3-ylmethyl)amino)-2-oxo-6-(piperidin-1-yl)pyrazin-1(2H)-yl)acetamide]"
6,< 0.1,"O=C(Cn1c(N2CCCCC2)ncc(NCc2ccc3oc4ccccc4c3c2)c1=O)NCc1cc2cnccc2[nH]1 [Compound 261, N-((1H-pyrrolo[3,2-c]pyridin-2-yl)methyl)-2-(5-((dibenzo [b,d]furan-2-ylmethyl)amino)-6-oxo-2-(piperidin-1-yl)pyrimi-din-1(6H)-yl)acetamide]"
7,< 0.1,"CS(=O)(=NC#N)c1ccc(-c2ncc(NCCCc3ccccc3)c(=O)n2CC(=O)NCc2cc3cnccc3[nH]2)cc1 (stereo not drawn) [Compound 114, N-((1H-pyrrolo[3,2-c]pyridine-2-yl)methyl)-2-(2-(4-(N-cyano-S-methylsulfonimidoyl)phenyl)-6-oxo-5-((3-phenylpropyl)amino)pyrimidin-1(6H)-yl)acetamide]"
8,< 0.1,"O=C(Cn1c(-c2ccccc2)ncc(NC(=O)c2coc(-c3cccnc3)n2)c1=O)NCc1cc2cnccc2[nH]1 [Compound 231, N-(1-(2-(((1H-pyrrolo[3,2-c]pyridine-2-yl)methyl)amino)-2-oxoethyl)-6-oxo-2-phenyl-1,6-dihydropyrimidin-5-yl)-2-(pyridine-3-yl)oxazole-4-carboxamide]"
9,< 0.1,"C[C@@H](Nc1cnc(C2=CCOCC2)n(CC(=O)NCc2cc3cnccc3[nH]2)c1=O)c1ccc2oc3ccccc3c2c1 [Compound 291, (R)-N-((1H-pyrrolo[3,2-c]pyr-idin-2-yl)methyl)-2-(5-((1-(dibenzo[b,d]furan-2-yl)ethyl)-amino)-2-(3,6-dihydro-2H-pyran-4-yl)-6-oxopyrimidin-1(6H)-yl)acetamide]"
10,< 0.1,"C[C@@H](Nc1cnc(-c2ccccc2F)n(CC(=O)NCc2cc3cnccc3[nH]2)c1=O)c1ccc2oc3ccccc3c2c1 [Compound 237, (R)-N-((1H-pyrrolo[3,2-c]pyr-idin-2-yl)methyl)-2-(5-((1-(dibenzo[b,d]furan-2-yl)ethyl)-amino)-2-(2-fluorophenyl)-6-oxopyrimidin-1(6H)-yl)acet-amide]"
11,< 0.1,"O=C(Cn1c(-c2ccccc2F)ncc(NCc2ccc3oc4ccccc4c3c2)c1=O)NCc1cc2cnccc2[nH]1 [Compound 120, N-((1H-pyrrolo[3,2-c]pyridin-2-yl)methyl)-2-(5-((dibenzo [b,d]furan-2-ylmethyl)amino)-2-(2-fluorophenyl)-6-oxopyr-imidin-1(6H)-yl)acetamide]"
12,< 0.1,"COc1cc(C(=O)Nc2cnc(-c3ccccc3)n(CC(=O)NCc3cc4cnccc4[nH]3)c2=O)ccc1-c1ccccc1 [Compound 115, N-(1-(2-(((1H-pyrrolo[3,2-c]pyridin-2-yl)methyl)amino)-2-oxoethyl)-6-oxo-2-phenyl-1,6-dihydropyrimidin-5-yl)-2-methoxy-[1,1′-biphenyl]-4-carboxamide]"
13,< 0.1,"O=C(Cn1c(N2CC(F)C2)ncc(NCc2ccc3oc4ccccc4c3c2)c1=O)NCc1cc2cnccc2[nH]1 [Compound 270, 2-[5-(dibenzofuran-2-ylmethylamino)-2-(3-fluoroazetidin-1-yl)-6-oxo-pyrimidin-1-yl]-N-(1H-pyrrolo[3,2-c]pyridine-2-ylmethyl)acetamide]"
